Results: US20260265233A1, “BENZOTHIOPHENE DERIVATIVES AS RXFP1 AGONISTS” (BRISTOL-MYERS SQUIBB COMPANY, priority 2021, published 2026)

Biological target: T1, human RXFP1 (Homo sapiens, UniProt Q9HBX9)
T1 construct: expressed in transfected cells
T1 sequence (Q9HBX9 1-757): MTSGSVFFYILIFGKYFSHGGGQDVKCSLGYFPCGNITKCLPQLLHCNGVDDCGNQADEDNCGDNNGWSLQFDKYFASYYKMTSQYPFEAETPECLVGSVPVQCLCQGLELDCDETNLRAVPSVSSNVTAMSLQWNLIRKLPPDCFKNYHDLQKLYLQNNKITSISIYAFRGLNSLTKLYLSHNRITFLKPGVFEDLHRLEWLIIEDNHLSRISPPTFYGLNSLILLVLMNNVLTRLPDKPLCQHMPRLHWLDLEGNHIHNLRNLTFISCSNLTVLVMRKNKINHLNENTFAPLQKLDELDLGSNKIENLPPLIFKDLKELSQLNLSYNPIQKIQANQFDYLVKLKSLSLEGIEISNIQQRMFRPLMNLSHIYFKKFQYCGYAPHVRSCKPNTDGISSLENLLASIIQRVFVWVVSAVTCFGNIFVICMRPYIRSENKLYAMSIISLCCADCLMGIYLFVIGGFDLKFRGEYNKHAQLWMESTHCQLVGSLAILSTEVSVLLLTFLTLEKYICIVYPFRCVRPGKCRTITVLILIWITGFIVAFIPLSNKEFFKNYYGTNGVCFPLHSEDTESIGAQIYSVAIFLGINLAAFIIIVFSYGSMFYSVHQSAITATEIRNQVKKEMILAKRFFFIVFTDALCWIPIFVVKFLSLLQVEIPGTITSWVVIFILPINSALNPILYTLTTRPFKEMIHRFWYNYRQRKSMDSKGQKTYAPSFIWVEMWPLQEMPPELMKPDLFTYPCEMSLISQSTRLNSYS
Assay: hRXFP1 HEK293 cAMP assay (HTRF)
Format: cell-based
Settings: HEK293 cells stably expressing human RXFP1; 30 min at rt; intracellular cAMP by HTRF
Outline: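 Agonism is measured as cAMP by HTRF, quantified from a standard curve via the 665/590 nm ratio and fitted with a four-parameter logistic equation. Compounds (0.010 nM to 50 μM final, 2% DMSO) were applied for 30 min at rt to human RXFP1-expressing HEK293 cells in assay buffer containing 0.5 mM IBMX.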

COc1ccc(C2CCN(C3COC3)C2)cc1C(=O)Nc1c(C(=O)Nc2ccc(F)c(C(F)(F)F)c2)sc2cc(C(F)(F)F)ccc12 (centres unmarked) [Example 154, N-(4-fluoro-3-(trifluoromethyl)phenyl)-3-(2-methoxy-5-(1-(oxetan-3-yl)pyrrolidin-3-yl)benzamido)-6-(trifluoromethyl) benzo[b] thiophene-2-carboxamide]
EC50: 553 nM

COc1ccc(C2CCN(CC(N)=O)C2)cc1C(=O)Nc1c(C(=O)Nc2ccc(F)c(C(F)(F)F)c2)sc2cc(C(F)(F)F)ccc12 (centres unmarked) [Example 155, 3-{5-[1-(carbamoyl-methyl)pyrrolidin-3-yl]-2-methoxy-benzamido}-N-[4-fluoro-3-(trifluoromethyl)phenyl]-6-(trifluoromethyl)-1-benzothiophene-2-carboxamide]
EC50: 902 nM

COc1ccc(C2CCN(CC(N)=O)C2)cc1C(=O)Nc1c(C(=O)Nc2ccc(F)c(C(F)(F)F)c2)sc2cc(C(F)(F)F)ccc12 (centres unmarked) [Example 156, 3-(5-(1-(2-amino-2-oxoethyl)pyrrolidin-3-yl)-2-methoxy-benzamido)-N-(4-fluoro-3-(trifluoromethyl)phenyl)-6-(trifluoromethyl) benzo[b] thiophene-2-carboxamide]
EC50: 2180 nM

COc1ccc(C2CC2C(C)(C)O)cc1C(=O)Nc1c(C(=O)Nc2ccc(F)c(C(F)(F)F)c2)sc2cc(C(F)(F)F)ccc12 (centres unmarked) [Example 159, N-(4-fluoro-3-(trifluoromethyl)phenyl)-3-(5-(2-(2-hydroxypropan-2-yl)cyclopropyl)-2-methoxy-benzamido)-6-(trifluoromethyl) benzo[b] thiophene-2-carboxamide]
EC50: 199 nM

COc1ccc(C2CC2C(=O)N2CC(O)C2)cc1C(=O)Nc1c(C(=O)Nc2ccc(F)c(C(F)(F)F)c2)sc2cc(C(F)(F)F)ccc12 (centres unmarked) [Example 162, N-(4-fluoro-3-(trifluoromethyl)phenyl)-3-(5-(2-(3-hydroxyazetidine-1-carbonyl)cyclopropyl)-2-methoxy-benzamido)-6-(trifluoromethyl) benzo[b] thiophene-2-carboxamide]
EC50: 292 nM

COc1ccc(C2CC2C(=O)N2CC(OC)C2)cc1C(=O)Nc1c(C(=O)Nc2ccc(F)c(C(F)(F)F)c2)sc2cc(C(F)(F)F)ccc12 (centres unmarked) [Example 163, N-[4-fluoro-3-(trifluoromethyl)phenyl]-3-{2-methoxy-5-[2-(3-methoxyazetidine-1-carbonyl)cyclopropyl]benzamido}-6-(trifluoromethyl)-1-benzothiophene-2-carboxamide]
EC50: 662 nM

COc1ccc(C2CC2C(=O)N2CC(C(C)(C)O)C2)cc1C(=O)Nc1c(C(=O)Nc2ccc(F)c(C(F)(F)F)c2)sc2cc(C(F)(F)F)ccc12 (centres unmarked) [Example 165, N-[4-fluoro-3-(trifluoromethyl)phenyl]-3-(5-{2-[3-(2-hydroxypropan-2-yl)azetidine-1-carbonyl]cyclopropyl}-2-methoxy-benzamido)-6-(trifluoromethyl)-1-benzothiophene-2-carboxamide]
EC50: 3050 nM

COc1ccc(C2CC2C(=O)NCC(C)(C)O)cc1C(=O)Nc1c(C(=O)Nc2ccc(F)c(C(F)(F)F)c2)sc2cc(C(F)(F)F)ccc12 (centres unmarked) [Example 166, N-[4-fluoro-3-(trifluoromethyl)phenyl]-3-(5-{2-[(2-hydroxy-2-methylpropyl)carbamoyl]cyclopropyl}-2-methoxy-benzamido)-6-(trifluoromethyl)-1-benzothiophene-2-carboxamide]
EC50: 1630 nM

COc1ccc(C2CC2C(=O)N2CC(OC)C2)cc1C(=O)Nc1c(C(=O)Nc2ccc(F)c(C(F)(F)F)c2)sc2cc(C(F)(F)F)ccc12 (centres unmarked) [Example 167, N-[4-fluoro-3-(trifluoromethyl)phenyl]-3-{2-methoxy-5-[2-(3-methoxyazetidine-1-carbonyl)cyclopropyl]benzamido}-6-(trifluoromethyl)-1-benzothiophene-2-carboxamide]
EC50: 400 nM

COc1ccc(C2CC2C(=O)N2CC(C(C)(C)O)C2)cc1C(=O)Nc1c(C(=O)Nc2ccc(F)c(C(F)(F)F)c2)sc2cc(C(F)(F)F)ccc12 (centres unmarked) [Example 169, N-[4-fluoro-3-(trifluoromethyl)phenyl]-3-(5-{2-[3-(2-hydroxypropan-2-yl)azetidine-1-carbonyl]cyclopropyl}-2-methoxy-benzamido)-6-(trifluoromethyl)-1-benzothiophene-2-carboxamide]
EC50: 2250 nM

COc1ccc(C2CC2C(=O)NCC(C)(C)O)cc1C(=O)Nc1c(C(=O)Nc2ccc(F)c(C(F)(F)F)c2)sc2cc(C(F)(F)F)ccc12 (centres unmarked) [Example 170, N-[4-fluoro-3-(trifluoromethyl)phenyl]-3-(5-{2-[(2-hydroxy-2-methylpropyl)carbamoyl]cyclopropyl}-2-methoxy-benzamido)-6-(trifluoromethyl)-1-benzothiophene-2-carboxamide]
EC50: 1100 nM

COc1ncc(C(=O)NCC2(S(C)(=O)=O)CC2)cc1C(=O)Nc1c(C(=O)Nc2ccc(F)c(C(F)(F)F)c2)sc2cc(C(F)(F)F)ccc12 [Example 171, N3-(2-((4-fluoro-3-(trifluoromethyl)phenyl)carbamoyl)-6-(trifluoromethyl)benzo[b]thiophen-3-yl)-2-methoxy-N5-((1-(methylsulfonyl)cyclopropyl)methyl) pyridine-3,5-dicarboxamide]
EC50: 9.1 nM

COc1ncc(C(=O)N2CC3(COC3)C2)cc1C(=O)Nc1c(C(=O)Nc2ccc(F)c(C(F)(F)F)c2)sc2cc(C(F)(F)F)ccc12 [Example 172, N-(2-((4-fluoro-3-(trifluoromethyl)phenyl)carbamoyl)-6-(trifluoromethyl)benzo[b]thiophen-3-yl)-2-methoxy-5-(2-oxa-6-azaspiro[3.3]heptane-6-carbonyl) nicotinamide]
EC50: 701 nM

COc1ncc(C(=O)N2CC(O)C2)cc1C(=O)Nc1c(C(=O)Nc2ccc(F)c(C(F)(F)F)c2)sc2cc(C(F)(F)F)ccc12 [Example 173, N-(2-((4-fluoro-3-(trifluoromethyl)phenyl)carbamoyl)-6-(trifluoromethyl)benzo[b]thiophen-3-yl)-5-(3-hydroxyazetidine-1-carbonyl)-2-methoxy-nicotinamide]
EC50: 179 nM

COc1ccc(C(=O)N2CC[C@H](O)C2)cc1C(=O)Nc1c(C(=O)Nc2ccc(F)c(C(F)(F)F)c2)sc2cc(C(F)(F)F)ccc12 [Example 174, (S)-N-(4-fluoro-3-(trifluoromethyl)phenyl)-3-(5-(3-hydroxy-pyrrolidine-1-carbonyl)-2-methoxy-benzamido)-6-(trifluoromethyl) benzo[b] thiophene-2-carboxamide]
EC50: 405 nM

COc1ccc(C(=O)N2CC[C@@H](O)C2)cc1C(=O)Nc1c(C(=O)Nc2ccc(F)c(C(F)(F)F)c2)sc2cc(C(F)(F)F)ccc12 [Example 175, (R)-N-(4-fluoro-3-(trifluoromethyl)phenyl)-3-(5-(3-hydroxy-pyrrolidine-1-carbonyl)-2-methoxy-benzamido)-6-(trifluoromethyl) benzo[b] thiophene-2-carboxamide]
EC50: 374 nM

COc1ccc(C(=O)N2CCC(CO)CC2)cc1C(=O)Nc1c(C(=O)Nc2ccc(F)c(C(F)(F)F)c2)sc2cc(C(F)(F)F)ccc12 [Example 176, N-(4-fluoro-3-(trifluoromethyl)phenyl)-3-(5-(4-(hydroxymethyl)piperidine-1-carbonyl)-2-methoxy-benzamido)-6-(trifluoromethyl) benzo[b] thiophene-2-carboxamide]
EC50: 279 nM

COc1ccc(C(=O)N2CC(CO)C2)cc1C(=O)Nc1c(C(=O)Nc2ccc(F)c(C(F)(F)F)c2)sc2cc(C(F)(F)F)ccc12 [Example 177, N-(4-fluoro-3-(trifluoromethyl)phenyl)-3-(5-(3-(hydroxymethyl)azetidine-1-carbonyl)-2-methoxy-benzamido)-6-(trifluoromethyl) benzo[b] thiophene-2-carboxamide]
EC50: 147 nM

COc1ccc(C(=O)N2CC(S(C)(=O)=O)C2)cc1C(=O)Nc1c(C(=O)Nc2ccc(F)c(C(F)(F)F)c2)sc2cc(C(F)(F)F)ccc12 [Example 178, N-(4-fluoro-3-(trifluoromethyl)phenyl)-3-(2-methoxy-5-(3-(methylsulfonyl)azetidine-1-carbonyl)benzamido)-6-(trifluoromethyl) benzo[b] thiophene-2-carboxamide]
EC50: 5.2 nM

COc1ccc(C(=O)N2CC(C(C)(C)O)C2)cc1C(=O)Nc1c(C(=O)Nc2ccc(F)c(C(F)(F)F)c2)sc2cc(C(F)(F)F)ccc12 [Example 179, N-(4-fluoro-3-(trifluoromethyl)phenyl)-3-(5-(3-(2-hydroxypropan-2-yl)azetidine-1-carbonyl)-2-methoxy-benzamido)-6-(trifluoromethyl) benzo[b] thiophene-2-carboxamide]
EC50: 179 nM
